Measurements reported in publication PMC11579512, “Deoxybouvardin-glucoside induces apoptosis in non-small cell lung cancer cells by targeting EGFR/MET and AKT signaling pathway” (EXCLI Journal, 2024).

What was measured:
Type in all cases: cell-based, human
HCC827 cells [1] = assay: Soft agar anchorage-independent growth, HCC827; conditions: 2 weeks
Description: The anchorage-independent cell growth assay was performed in 6-well plates with dual agar layers containing 0.6 % agar (lower layer) and 0.3 % agar (upper layer) supplemented with BME, 2 mM L-glutamine, 5 μg/ml gentamicin, and 10 % FBS. After 2 weeks of incubation, the number of colonies was assessed using a microscope (Leica, Wetzlar, Germany), and the mean colony area was analyzed using i-Solution ^TM software (Vancouver, BC, Canada).

HCC827GR cells = assay: MTT viability after NAC pretreatment, HCC827GR; conditions: for cell viability (relative to untreated = 100.00): HCC827GR
Description: All culture media were supplemented with FBS (10 %) and P/S (1 %), and the cells were grown at 37 °C in 5 % CO2.
The cells were treated with MTT and incubated for 2 h. The supernatants were removed, and the remaining formazan crystals were dissolved in DMSO before absorbance measurement at 570 nm using a Multiscan GO spectrophotometer (Thermo Fisher Scientific, Vantaa, Finland).

p-EGFR = assay: Immunoblot p-EGFR with NAC pretreatment, HCC827 and HCC827GR cells; conditions: for p-EGFR protein Ratio: control = 1.00
Description: (§1) HaCaT cells were grown in DMEM, whereas HCC827 and HCC827GR cells were grown in RPMI 1640. All culture media were supplemented with FBS (10 %) and P/S (1 %), and the cells were grown at 37 °C in 5 % CO2.
(§2) Cells were lysed in RIPA buffer, and protein concentration was determined using a Bio-Rad DC Protein Assay kit (Bio-Rad, Hercules, CA, USA). Protein samples from the cell lysates were resolved by sodium dodecyl sulfate-polyacrylamide gel electrophoresis and then transferred onto polyvinylidene fluoride membranes. The membranes were blocked with 3 % or 5 % skim milk and then incubated at 4 °C overnight with the indicated primary antibodies, followed by the corresponding horseradish peroxidase-conjugated secondary antibodies at RT for 2 h. Protein bands were visualized using western blotting luminol reagent solution and ImageQuant LAS 500 (GE Healthcare, Uppsala, Sweden). The density of the bands was quantified using ImageJ software (NIH, Bethesda, MD, USA).

p-MET = assay: Immunoblot p-MET with NAC pretreatment, HCC827 and HCC827GR cells; conditions: for p-MET protein Ratio: control = 1.00
Description: as §1, §2

PARP = assay: Immunoblot PARP with NAC pretreatment, HCC827 and HCC827GR cells; conditions: for PARP protein Ratio: control = 1.00
Description: as §1, §2

Bad = assay: Immunoblot Bad in HCC827 and HCC827GR cells
Description: as §1, §2

HCC827 cells [2] = assay: Multi-caspase assay, HCC827; set-up: Caspase+ cells / Total Caspase+ cells / dead cells (multi-caspase assay) / Live cells (multi-caspase assay): unit not given here; conditions: for cells with activated caspases: 48 h, background 6.52 %
Description: as §1

[3] = NAC 4 mM pretreatment, DBG 48 h

SMILES: COc1ccc(C[C@H]2C(=O)N[C@@H](C)C(=O)N(C)[C@H]3Cc4ccc(cc4)Oc4cc(ccc4O[C@@H]4O[C@H](CO)[C@@H](O)[C@H](O)[C@H]4O)C[C@@H](C(=O)N[C@H](C)C(=O)N[C@@H](C)C(=O)N2C)N(C)C3=O)cc1 [DBG, deoxybouvardin glucoside]
- colony number, Control % (HCC827 cells [1]; DBG 3 nM): 58.65%
- colony size, Control % (HCC827 cells [1]; DBG 3 nM): 78.77%
- colony number, Control % (HCC827 cells [1]; DBG 6 nM): 34.62%
- colony size, Control % (HCC827 cells [1]; DBG 6 nM): 57.75%
- colony number, Control % (HCC827 cells [1]; DBG 12 nM): 0.00%
- colony size, Control % (HCC827 cells [1]; DBG 12 nM): 0.00%
- cell viability (relative to untreated = 100.00) (HCC827GR cells; DBG 12 nM, mean of 3): 38.91
- cell viability (relative to untreated = 100.00) (HCC827GR cells; DBG 12 nM, replicate 1): 39.88
- cell viability (relative to untreated = 100.00) (HCC827GR cells; DBG 12 nM, replicate 2): 38.76
- cell viability (relative to untreated = 100.00) (HCC827GR cells; DBG 12 nM, replicate 3): 38.08
- cell viability (relative to untreated = 100.00) (HCC827GR cells; NAC 4 mM + DBG 12 nM, mean of 3): 99.25
- cell viability (relative to untreated = 100.00) (HCC827GR cells; NAC 4 mM + DBG 12 nM, replicate 1): 100.78
- cell viability (relative to untreated = 100.00) (HCC827GR cells; NAC 4 mM + DBG 12 nM, replicate 2): 98.32
- cell viability (relative to untreated = 100.00) (HCC827GR cells; NAC 4 mM + DBG 12 nM, replicate 3): 98.66
- anticancer activity of DBG after NAC pretreatment (HCC827GR cells; NAC 4 mM, 3 h, DBG 48 h): decreased
- cytotoxicity after NAC pretreatment (HCC827GR cells; NAC 4 mM, DBG 12 nM): a little, if any, cytotoxicity only at 12 nM
- p-EGFR protein/actin (p-EGFR; HCC827, DBG 12 nM, control 0.90): 0.25
- p-EGFR protein Ratio (p-EGFR; HCC827, DBG 12 nM): 0.27
- p-EGFR protein/actin (p-EGFR; HCC827, NAC 4 mM + DBG 12 nM, control 0.90): 0.27
- p-EGFR protein Ratio (p-EGFR; HCC827, NAC 4 mM + DBG 12 nM): 0.30
- p-EGFR protein/actin (p-EGFR; HCC827GR, DBG 12 nM, control 0.93): 0.40
- p-EGFR protein Ratio (p-EGFR; HCC827GR, DBG 12 nM): 0.43
- p-EGFR protein/actin (p-EGFR; HCC827GR, NAC 4 mM + DBG 12 nM, control 0.93): 0.30
- p-EGFR protein Ratio (p-EGFR; HCC827GR, NAC 4 mM + DBG 12 nM): 0.32
- DBG-decreased phosphorylation of EGFR with NAC (p-EGFR; [3]): did not change
- p-MET protein/actin (p-MET; HCC827, DBG 12 nM, control 1.17): 0.27
- p-MET protein Ratio (p-MET; HCC827, DBG 12 nM): 0.23
- p-MET protein/actin (p-MET; HCC827, NAC 4 mM + DBG 12 nM, control 1.17): 0.40
- p-MET protein Ratio (p-MET; HCC827, NAC 4 mM + DBG 12 nM): 0.34
- p-MET protein/actin (p-MET; HCC827GR, DBG 12 nM, control 1.14): 0.44
- p-MET protein Ratio (p-MET; HCC827GR, DBG 12 nM): 0.39
- p-MET protein/actin (p-MET; HCC827GR, NAC 4 mM + DBG 12 nM, control 1.14): 0.21
- p-MET protein Ratio (p-MET; HCC827GR, NAC 4 mM + DBG 12 nM): 0.18
- DBG-decreased phosphorylation of MET with NAC (p-MET; [3]): did not change
- PARP protein/actin (PARP; HCC827, DBG 12 nM, control 0.96): 0.09
- PARP protein Ratio (PARP; HCC827, DBG 12 nM): 0.09
- PARP protein/actin (PARP; HCC827, NAC 4 mM + DBG 12 nM, control 0.96): 1.09
- PARP protein Ratio (PARP; HCC827, NAC 4 mM + DBG 12 nM): 1.14
- PARP protein/actin (PARP; HCC827GR, DBG 12 nM, control 0.99): 0.21
- PARP protein Ratio (PARP; HCC827GR, DBG 12 nM): 0.22
- PARP protein/actin (PARP; HCC827GR, NAC 4 mM + DBG 12 nM, control 0.99): 0.81
- PARP protein Ratio (PARP; HCC827GR, NAC 4 mM + DBG 12 nM): 0.82
- Bad protein/actin (Bad; HCC827, DBG 3 nM, DBG 0 nM 0.16): 0.25
- Bad protein Ratio (Bad; HCC827, DBG 3 nM, relative to DBG 12 nM = 1.00, DBG 0 nM 0.19): 0.31
- Bad protein/actin (Bad; HCC827, DBG 6 nM, DBG 0 nM 0.16): 0.69
- Bad protein Ratio (Bad; HCC827, DBG 6 nM, relative to DBG 12 nM = 1.00, DBG 0 nM 0.19): 0.84
- Bad protein Ratio (Bad; HCC827, DBG 12 nM (reference of the ratio, 1.00), DBG 0 nM 0.19): 1.00
- Bad protein/actin (Bad; HCC827, DBG 12 nM, DBG 0 nM 0.16): 0.82
- Bad protein/actin (Bad; HCC827GR, DBG 3 nM, DBG 0 nM 0.28): 0.22
- Bad protein Ratio (Bad; HCC827GR, DBG 3 nM, relative to DBG 12 nM = 1.00, DBG 0 nM 0.49): 0.39
- Bad protein/actin (Bad; HCC827GR, DBG 6 nM, DBG 0 nM 0.28): 0.59
- Bad protein Ratio (Bad; HCC827GR, DBG 6 nM, relative to DBG 12 nM = 1.00, DBG 0 nM 0.49): 1.03
- Bad protein Ratio (Bad; HCC827GR, DBG 12 nM (reference of the ratio, 1.00), DBG 0 nM 0.49): 1.00
- Bad protein/actin (Bad; HCC827GR, DBG 12 nM, DBG 0 nM 0.28): 0.57
- level of Bad (Bad; NSCLC cells, DBG): increased
- cells with activated caspases (HCC827 cells [2]; DBG 3 nM): 16.23%
- cells with activated caspases (HCC827 cells [2]; DBG 6 nM): 24.10%
- cells with activated caspases (HCC827 cells [2]; DBG 12 nM): 25.94%
- Caspase+ cells (HCC827 cells [2]; HCC827, DBG 3 nM, mean of samples 1-3): 4.43
